Laboratory results: patent US20140235536A1, “INJECTABLE SOLUTION AT PH 7 COMPRISING AT LEAST ONE BASAL INSULIN THE ISOELECTRIC POINT OF WHICH IS COMPRISED IN 5.8 AND 8.5 AND AN ANIONIC COMPOUND BEARING CARBOXYLATE CHARGES AND HYDROPHOBIC RADICALS” (ADOCIA, priority 2013, published 2014)
Like-named read-outs stand apart in the source and are kept apart here.

Assays:
[1] = target: T1, insulin glargine (Homo sapiens, UniProt P01308, INS54RR/N110G); test: Precipitation of hydrophobized anionic molecule/insulin glargine/prandial insulin compositions in PBS/BSA (examples B15-B17); assay type: physicochemical
T1 construct: substitution of asparagine residue A21 with a glycine residue; elongation of the C-terminal of the B chain of human insulin with two arginine residues; purchased SANOFI-AVENTIS (Lantus®); ELI LILLY (Humalog®)
T1 sequence (P01308 90-110 N110G limits assumed): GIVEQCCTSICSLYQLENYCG
T1 sequence (P01308 25-56 limits assumed, stated change not applied): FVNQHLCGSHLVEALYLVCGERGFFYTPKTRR
Description: The PBS/BSA mixture simulates the composition of the subcutaneous medium.
(§1) Centrifugation at 4000 rpm is carried out in order to separate the precipitate from the supernatant. The insulin glargine is then assayed in the supernatant by RP-HPLC.
This composition is added to 2 ml of PBS containing 20 mg/ml of BSA. The PBS/BSA mixture simulates the composition of the subcutaneous medium. […] Centrifugation at 4000 rpm is carried out in order to separate the precipitate from the supernatant. The insulin glargine is then assayed in the supernatant by RP-HPLC.

[2] = target: insulin glargine and prandial insulin (Homo sapiens, UniProt P01308, INS54RR/N110G)
Description: 0.25 ml of the insulin glulisine solution of example B3 is added to 0.75 ml of the solution of hydrophobized anionic molecule AA1/insulin glargine prepared according to the protocol described in example B6(a), so as to form 1 ml of a composition at pH 7. […] This clear solution is filtered through a 0.22 μm filter and then placed at +4° C.
0.25 ml of the insulin lispro solution of example B2 is added to 0.75 ml of the solution of hydrophobized anionic molecule AA1/insulin glargine prepared according to the protocol described in example B6(a), so as to form 1 ml of a composition at pH 7. […] This clear solution is filtered through a 0.22 μm filter and then placed at +4° C.
0.25 ml of the insulin aspart solution of example B1 is added to 0.75 ml of the solution of hydrophobized anionic molecule AA1/insulin glargine prepared in example B6(a), so as to form 1 ml of a composition at pH 7. […] This clear solution is filtered through a 0.22 μm filter and then placed at +4° C.
0.4 ml of the insulin lispro solution of example B2 is added to 0.6 ml of the solution of hydrophobized anionic molecule AA1/insulin glargine prepared in example 86(a), so as to form 1 ml of a composition at pH 7. […] This clear solution is filtered through a 0.22 μm filter and then placed at +4° C.
0.6 ml of the insulin lispro solution of example B2 is added to 0.4 ml of the solution of hydrophobized anionic molecule AA1/insulin glargine prepared in example B6(a), so as to form 1 ml of a composition at pH 7. […] This clear solution is filtered through a 0.22 μm filter and then placed at +4° C.
Compositions are prepared by mixing 0.75 ml of the hydrophobized anionic molecule AA1/insulin glargine solution prepared according to the protocol of example B6(a) with 0.25 ml of a prandial insulin, so as to form 1 ml of hydrophobized anionic molecule AA1/insulin glargine/prandial insulin composition (containing 7.5 mg/ml of hydrophobized anionic molecule AA1, 75 IU/ml of insulin glargine and 25 IU/ml of prandial insulin).

[3] = target: T1, insulin glargine; details: alone versus with the cyclodextrin, cited from earlier work
[4] = background statement on marketed insulins; cited from earlier work
[5] = target: T1, insulin glargine; test: Precipitation of hydrophobized anionic molecule/insulin glargine composition in PBS/BSA mixture simulating the subcutaneous medium (examples B13, B14); assay type: physicochemical; details: 1 ml composition (10 mg/ml molecule, 100 IU/ml insulin glargine) added to 2 ml PBS containing 20 mg/ml BSA
Description: 1 ml of the insulin glargine solution of example B4 is added to 2 ml of a solution of PBS (phosphate buffered saline) containing 20 mg/ml of BSA (bovine serum albumin). The PBS/BSA mixture simulates the composition of the subcutaneous medium.
Centrifugation at 4000 rpm is carried out in order to separate the precipitate from the supernatant. The insulin glargine is then assayed in the supernatant by reverse-phase liquid chromatography (RP-HPLC).
1 ml of hydrophobized anionic molecule AA1/insulin glargine solution prepared in example B6(a) is added to 2 ml of a solution of PBS containing 20 mg/ml of BSA. The PBS/BSA mixture simulates the composition of the subcutaneous medium.
as §1
Solubilization and precipitation tests identical to those described in examples B6 and B14 were carried out with other hydrophobized anionic molecules at the same concentration of 10 mg/ml of hydrophobized anionic molecule for 100 IU/ml of insulin glargine solution.

[6] = insulin glargine/insulin lispro 75/25 composition at pH 7, 1 ml added to 2 ml PBS containing 20 mg/ml BSA
[7] = 7.5 mg/ml AA1, 75 IU/ml insulin glargine, 25 IU/ml prandial insulin, added to 2 ml PBS containing 20 mg/ml BSA

Row | Substance | Insulin glargine precipitation [1, 6] | Insulin glargine precipitation [5] | other results
1 | Sodium Maltotriosemethylcarboxylate Functionalized with Cholesteryl Leucinate [AA3] | Yes |  | 
2 | Insulin lispro (Humalog ®): commercial 100 IU/ml solution of insulin lispro, fast-acting insulin analog (ELI LILLY) [reference compound] |  |  | Solubilization of insulin glargine/prandial insulin 75/25 [2]: Yes; Insulin glargine precipitation [1, 7]: Yes
3 | insulin glargine |  |  | solubility of insulin glargine ([3]; pH 7.4, phosphate buffer): 5 µM; solubility of insulin glargine ([3]; pH 9.5): 750 µM; duration of action / hypoglycemic effect [4]: 24 h
4 | Sodium Maltooctaosemethylcarboxylate Functionalized with Cholesteryl Leucinate [AA5] | Yes | Yes | 
5 | Sodium Maltopentaosemethylcarboxylate Functionalized with Cholesteryl Leucinate [AA4] | Yes | Yes | 
6 | Sodium Maltotriosemethylcarboxylate Functionalized with Cholesteryl Leucinate [AA1] |  | Yes | 
7 | Sodium Maltotriosemethylcarboxylate Functionalized with (±)-α-tocopheryl Leucinate [AA9] | Yes | Yes | 
8 | Sodium Maltotriosemethylcarboxylate Functionalized with 3,7-dimethyl-octanoyl Phenylalaninate [AA8] | Yes | Yes | 
9 | Insulin aspart (NovoLog ®): commercial 100 IU/ml solution of insulin aspart, fast-acting insulin analog (NOVO NORDISK) [reference compound] |  |  | Solubilization of insulin glargine/prandial insulin 75/25 [2]: Yes; Insulin glargine precipitation [1, 7]: Yes
10 | Insulin glulisine (Apidra ®): commercial 100 IU/ml solution of insulin glulisine, fast-acting insulin analog (SANOFI-AVENTIS) [reference compound] |  |  | Insulin glargine precipitation [1, 7]: Yes
11 | sulfobutyl ether-β-cyclodextrin [SVE4-β-CYD] |  |  | solubility of insulin glargine ([3]; pH 7.4, phosphate buffer): 8 µM; solubility of insulin glargine ([3]; pH 9.5): 1250 µM
12 | Human insulin (ActRapid ®): commercial 100 IU/ml solution of human insulin (NOVO NORDISK) [reference compound] |  |  | Solubilization of insulin glargine/prandial insulin 75/25 [2]: Yes; Insulin glargine precipitation [1, 7]: Yes
13 | Sodium Maltotriosemethylcarboxylate Functionalized with Cholesteryl 2-aminoethylcarbamate [AA7] | Yes | Yes | 
14 | Sodium Maltotriosemethylcarboxylate Functionalized with Dilauryl Aspartate [AA6] | Yes | Yes | 
